Where “and” joins values, the source holds several entries; their conditions need not be identical. Equal values may be shown once. Entries after “also recorded” stand apart in the source; their conditions may differ. Read-outs that look alike come from different tables or passages of the source.
Key:
[1] = fixed in the model for DEX and directly administered (preformed) DOR, cited from earlier work
[2] = Population pharmacokinetic model (joint parent drug-metabolite model; two-compartment model for DOR given on its own); format: in vivo, human; settings: for Vd/F / Between‐subject variability of V/F: after administration of DEX; for Vd/F: taken as equal for DEX and DOR, read-out: V/F, volume of distribution; for Between‐subject variability of V/F: common to DEX and DOR
Protocol: Pharmacokinetic/pharmacodynamic analysis (PKPD) of DEX and DOR was conducted using non‐linear mixed effects modelling with Monolix software, 2024R1 (Lixoft SAS, Antony, France). The analysis followed a sequential approach, where the PK parameters of both compounds were estimated initially, and then these were used alongside the cough data to build the PK/PD model. The model components are described below:
A joint parent drug‐metabolite model[26] (Figure 1) was considered for DEX and DOR following administration of DEX with first‐pass effect and without dose apportionment. Different goodness‐of‐fit factors, such as corrected Bayesian information criterion (BICc), various diagnostic plots, such as visual predictive check used for final model selection. This model assumed a one‐compartment model for both compounds and unidirectional transformation of the parent drug to the metabolite in DEX arm of the study. The distribution of DOR after its administration on its own in a separate arm of the study was considered to follow a two‐compartment model. Inter‐individual variability of PK parameters was assumed to be log‐normally distributed. Proportional error model was used to model the intra‐individual variability.
Figure 1 Schematic representation of the joint parent drug‐metabolite structural model with first‐pass effect and without dose‐apportionment used to describe the pharmacokinetics of dextromethorphan and dextrorphan following administration of dextromethorphan. F, bioavailability of the parent drug; DEX dose, dose of dextromethorphan; ka(DORDEX), absorption constant of dextromethorphan; ka(DOR), absorption constant of dextrorphan; kpm, transformation rate constant from parent to metabolite; VDEX and VDOR_DEX are the volume of the central compartment for the dextromethorphan and dextrorphan, respectively which are considered to be equal; k(DEX), elimination rate constant for dextromethorphan by other pathways; k(DOR), the elimination constant of dextrorphan.
As shown, the concentration of DOR formed by the metabolism of DEX is higher than that of the DOR after preformed DOR is administered on its own. The joint parent drug‐metabolite model with first‐pass effect and without dose apportionment best described the plasma concentration‐time profile of DEX and unconjugated DOR following administration of DEX. The two‐compartment model fitted well to the data of DOR from the administration of preformed DOR. The goodness‐of‐fit of the combined models could be seen in the observed versus predicted plots and visual predictive check graphs of the models (Figure 4). […] Since there was not enough data in the absorption phase, the value of first‐order absorption rate constant for both DEX and preformed DOR was fixed to the reported values of 2.6 h^−1 23. To prevent the identifiability problem, equal extravascular apparent volume of distributions were considered for the parent drug and the metabolite in the joint model. It is important to emphasize that the primary focus of this study is on characterizing the PKPD relationship rather than on developing a detailed PK model. While a mechanistic PK model can provide insights, our primary objective can also be achieved using any empirical PK model, provided it adequately describes the data and supports the PKPD link. The selection of a one‐compartment model for DEX and a two‐compartment model for DOR reflects this practical approach and ensures compatibility with the data under different conditions. The disparity of the disposition model for DOR may indicate that formation kinetics from DEX masks the first phase of distribution when assessing the kinetics of formed DOR, whilst this becomes evident under direct administration of DOR.

Caco‐2 monolayers = settings: cited from earlier work
[3] = system: cough response to citric acid challenge; assay: Citric acid cough challenge test, model-independent analysis of antitussive effect; format: in vivo, human; settings: for Emax, maximum percentage of cough number reduction, mean: mean of 23 healthy volunteers, change relative to baseline; for Emax, maximum percentage of cough number reduction, mean / Emax, maximum percentage of cough number reduction, median: after 40.5 mg dextromethorphan hydrobromide or 44.6 mg dextrorphan-D-tartrate; for AUEC0‐24 h, mean / AUEC0‐24 h, median: area under percent reduction in cough number vs time 0-24 h; for AUEC0‐24 h, mean / TEmax, time of maximum percentage of reduction in cough number, mean / AUEC0‐24 h, median / TEmax, time of maximum percentage of reduction in cough number, median: healthy volunteers; for TEmax, time of maximum percentage of reduction in cough number, mean / TEmax, time of maximum percentage of reduction in cough number, median: after DEX or DOR administration; for Emax, maximum percentage of cough number reduction, median: median of 23 healthy volunteers; for Emax and TEmax compared between DEX, DOR and placebo arms: model-independent analysis; for Antitussive effect (AUEC0‐24 h) compared between DEX, DOR and placebo arms: model-independent pairwise analysis, Friedman test with Dunn's multiple comparison
Excerpt: The clinical trial has been performed according to the Declaration of Helsinki and was approved by the North Sheffield Research and Ethics Committee (approval number NS98/183). All participants enrolled into the clinical trial have given informed consent. Data were collected from twenty‐three healthy non‐smoker volunteers (12 male) aged 19‐51 years who took part in a double‐blind randomized placebo controlled cross‐over study. […] The exclusion criteria were respiratory tract infection or acute cough within the last 4 weeks, receiving any medication within previous 2 weeks, and any medical condition which may interfere with the study. Preceding the visit day, the volunteer was asked to fast for 8 h, abstain from alcohol, and abstain from caffeinated drinks throughout the study day. Written informed consent was obtained from all volunteers. The study was approved by the […] Research and Ethics Committee. Subjects' cough response to citric acid challenge test was studied on three separate occasions (separated at least 7 days apart) following administration of (i) placebo; (ii) 40.5 mg dextromethorphan hydrobromide; (iii) 44.6 mg of dextrorphan‐D‐tartrate. The order of treatments (placebo, DEX, and DOR) was randomized across participants using a balanced Latin square design to ensure equal distribution of sequence effects. Blood samples for PK analysis were taken periodically (at 0, 1, 2, 3, 4, 5, 6, 8, 10, 12, and 24 h post administration of DEX and DOR).
Details of the cough challenge test were described previously.[24] In summary, cough was produced by five inhalations of 3 mL 10% w/v citric acid (placed in a nebulizing chamber) over 5 min. Prior to randomization, all volunteers underwent a two‐part screening process. Volunteers who coughed between 7 and 14 times following five inhalations of a 10% citric acid solution at the first visit, were considered eligible for further screening. The second visit evaluated both interday and intraday cough response consistency. The acceptable level of variability in cough frequency was established as no more than 20% between separate days and within a single day across three separate measurements. The frequency of cough response was measured at baseline (prior to placebo or drug administration, t = −1 h) and at regular intervals up to 24 h. Cough measurements were obtained at the same time points as blood sampling.
The percent of change in cough number relative to the baseline (t = 0) was plotted against time and the maximum reduction in cough response (Emax) and its […] (TEmax) were determined. The area under the percent of reduction in cough number against time between 0 until 24 h (AUEC0‐24 h) was calculated using the trapezoidal rule. The correlation between AUEC0‐24 h and area under plasma concentration time between zero and 24 h (AUC0‐24 h) of DEX, (endogenously) formed DOR and directly administered DOR was statistically examined using Spearman rank correlation test. The Friedman test (followed by Dunn's multiple comparison) was used to compare the AUC values of DEX and DOR, as well as the AUEC values, between the different arms of the study.

guinea pig brain slices = system: guinea pig brain slices; set-up: method as in PMID 2897648; settings: cited from earlier work
[4] = both sexes, human, plasma, oral, population estimate
[5] = population PK model, direct administration of DOR
[6] = population estimate, after direct administration of DOR

Row | SMILES | ka, first-order absorption rate constant (fixed) [1] | Vd/F [2, 4] | Between‐subject variability of V/F ([2]; population PK model) | Permeability, DEX compared with DOR (Caco‐2 monolayers) | Emax, maximum percentage of cough number reduction, mean [3] | AUEC0‐24 h, mean [3] | TEmax, time of maximum percentage of reduction in cough number, mean [3] | Emax, maximum percentage of cough number reduction, median [3] | AUEC0‐24 h, median [3] | TEmax, time of maximum percentage of reduction in cough number, median [3] | Emax and TEmax compared between DEX, DOR and placebo arms [3] | Antitussive effect (AUEC0‐24 h) compared between DEX, DOR and placebo arms [3] | Antiepileptic activity (guinea pig brain slices) | also measured
1 | COc1ccc2c(c1)[C@]13CCCC[C@@H]1[C@H](C2)N(C)CC3 [DEX, dextromethorphan] | 2.6 h^−1 and 2.6 (fixed) h^−1 | 4870 L | 48 CV% | comparable permeability | −46% | −299 %hr | 3.9 h | −44% | −286 %hr | 3.0 h | no significant differences | no significant difference | possess antiepileptic activity | k el ([2]; both sexes, human, plasma, oral, population estimate, read-out: k(DEX), elimination rate constant for dextromethorphan by other pathways (converted)): 2.78e-05 s⁻¹; Between‐subject variability of k(DEX) ([2]; population PK model): 108 CV%; Between‐subject variability of kpm ([2]; population PK model): 43 CV%; kpm, transformation rate constant from parent (dextromethorphan) to metabolite (dextrorphan) ([2]; population estimate): 0.04 h⁻¹
2 | CN1CC[C@@]23CCCC[C@@H]2[C@@H]1Cc1ccc(O)cc13 [DOR, dextrorphan] | 2.6 (fixed) h^−1 | 4870 L | 48 CV% | comparable permeability | −45% | −189 %hr | 6.3 h | −46% | −170 %hr | 5.5 h | no significant differences | no significant difference; also recorded: did not reveal a statistically significant difference; also recorded: failed to show any statistical difference | possess antiepileptic activity | ka, first-order absorption rate constant (fixed) ([1]; listed as preformed DOR): 2.6 h⁻¹; Between‐subject variability of k(DOR) ([2]; population PK model): 32 CV%; Between‐subject variability of V1/F(DOR) [2, 5]: 32 CV%; Between‐subject variability of k12(DOR) [2, 5]: 196 CV%; Between‐subject variability of k21(DOR) [2, 5]: 299 CV%; k(DOR), elimination constant of dextrorphan ([2]; population estimate): 0.2 h⁻¹; V1/F(DOR), volume of the central compartment [2, 6]: 6984 L; k12(DOR), transfer rate constant central to peripheral [2, 6]: 0.57 h⁻¹; k21(DOR), transfer rate constant peripheral to central [2, 6]: 0.60 h⁻¹
